Here are results for 1 molecule from paper PMC11009648, “Development of an orally bioavailable mSWI/SNF ATPase degrader and acquired mechanisms of resistance in prostate cancer” (Proceedings of the National Academy of Sciences of the …, 2024).

The pIC50 is the negative decadic logarithm of the IC50, by convention in mol/L. Read a high pIC50 as a low IC50.

pIC50: −log10 of the molar value. Entries after “also recorded” stand apart in the source; their conditions may differ.

The test system of series [1] is SMARCA4, PBRM1 and SMARCA2 in 22Rv1-AUR-3 xenografts. The series can be described thus: 22Rv1-AUR-3 xenograft pharmacodynamics study. To be noted: 5 d; AU-24118 15 mg/kg oral gavage three times per week; zosuquidar 40 mg/kg i.p.
Protocol: (§2) Lysates were prepared using radioimmunoprecipitation assay buffer (Thermo Fisher) with cOmpleteTM protease inhibitor cocktail tablets (Sigma-Aldrich) added. Total protein for each sample was determined using the DC Protein Assay (Bio-Rad) according to the manufacturer’s instructions. A standardized quantity of protein was resolved using NuPAGE Tris-Acetate Protein Gel (3 to 8%) (Thermo Fisher) or NuPAGE Bis-Tris Protein Gel (4 to 12%) (Thermo Fisher) and probed with primary antibodies as indicated. Following incubation with secondary antibodies conjugated with horseradish peroxidase, membranes were imaged on an Odyssey Fc Imager (LiCOR Biosciences).
For the 22Rv1-AUR-3 model, bilateral subcutaneous dorsal flank tumors were established by injecting 1 × 10^6 cells suspended in a 1:1 mixture of serum-free medium and Matrigel (BD Biosciences). Once tumors reached an average volume of 100 mm^3, mice were randomized and treated with either 60 mg/kg AU-15330 by retro-orbital vein injection 3 times every other day and with or without 10 mg/kg, 20 mg/kg, or 40 mg/kg of zosuquidar by intraperitoneal injection daily for 5 d per week. […] Animals harboring tumors approaching that size were immediately killed. All in vivo studies were approved by the U-M IACUC.
The test system of series [2] is SMARCA4 (BRG1) and PBRM1 in VCaP cells. Put plainly: Immunoblot of target degradation in VCaP cells. The format is cell-based, human. To be noted: 4 h, identical treatment conditions. For orientation: Immunoblotting shows a protein as a band on a membrane.
Protocol: as §2
In the next series the test system is 22Rv1 AUR-3 cells. Put plainly: CellTiter-Glo cell viability assay in AU-15330-resistant 22Rv1 AUR-3 cells (ABCB1 overexpression). Type of series: cell-based, human. The source says:
The rising importance of the mSWI/SNF complex as a therapeutic target and the success ([32], [33]) of developing next-generation PROTAC degraders targeting the mSWI/SNF complex prompted us to proactively study potential resistance mechanisms that cancer cells may develop in response to this class of compounds. To achieve this, we cultured 22Rv1 cells in either DMSO or a lethal dose of AU-15330 for 1 mo, refreshing the drug twice a week, until resistant cells emerged. Upon obtaining a population of resistant cells, we unbiasedly characterized the genomic and transcriptomic alterations using whole-exome sequencing and bulk RNA sequencing (RNA-seq), respectively (Fig. 3A).
(§1) Cells were seeded onto 96-well plates in appropriate culture media and allowed to adhere overnight prior to treatment. The next day, a nine-point serial dilution of the compounds was prepared and added to the plates. After treatment, the cells were then incubated for an additional 5 d. On the last day of treatment, the CellTiter-Glo cell viability assay (Promega) was then executed in accordance with the manufacturer’s guidelines. The signal (luminescence) from each well was determined using an Infinite M1000 Pro plate reader (Tecan). Relative viability was determined by dividing the signal from each well by the average of the control condition in each experiment. Finally, the data were analyzed and plotted using GraphPad Prism.

The subject of series [3] is VCaP castration-resistant tumor model. Put plainly: CRPC-VCaP xenograft efficacy study. The format is in vivo. The procedure:
Six-week-old CB17 (male) SCID mice were obtained from the breeding colony at the U-M. For all studies, tumors were measured two or three times per week using digital calipers, and tumor volumes were calculated using the formula (π/6) (L × W2), where L is length and W is width of the tumor. At study endpoint, mice were killed, and tumors were extracted and weighed. […] Once tumors grew to a palpable size (~400 mm^3), the mice were physically castrated. Once those tumors regained their precastration size, mice were then randomized and treated with either 15 mg/kg AU-24118 or vehicle by oral gavage 3 d per week with or without enzalutamide (10 mg/kg) by oral gavage 5 d per week for 4 wk.
IHC was performed on 4 µm formalin-fixed, paraffin-embedded tissue sections using BRG1 (SMARCA4), AR, FOXA1, ERG and C-Myc. The IHC process was performed on the Ventana ULTRA automated slide staining system using the Omnimap and Ultraview Universal DAB detection kit. The antibody details are provided in SI Appendix, Table S1. The following commercial kits from Roche-Ventana Medical System were used: Discovery CC1 (Cat No. 950-500), Discovery CC2 (Cat No. 950-123), OptiView Universal DAB Detection Kit (Cat No. 760-700), and OmniMap Universal DAB Detection Kit (Cat No. 760-149).
The TUNEL and In Situ Cell Death Detection Kits (TMR Red #12156792910; Roche Applied Science) were used to examine apoptosis, following the manufacturer’s instructions. Briefly, fixed sections were permeabilized with Triton X-100 and then washed in phosphate-buffered saline. Labeling was carried out at 37 °C for 60 min by addition of a reaction buffer that contained enzymes. A Zeiss Axiolmager M1 microscope was used to obtain images.

Series [4] has as its system panel of human cancer or normal cell lines. Put plainly: Cell-TiterGlo viability assays in a panel of cell lines. The format is cell-based. To be noted: 5 d of treatment; sensitive: IC50 < 100 nM, resistant: IC50 > 100 nM. Here is the method: as §1
Series [5] deals with mutant forms of SMARCA4 in HEK293 cells. The series can be described thus: Immunoblot of overexpressed flag-tagged mutant SMARCA4 in HEK293 cells. To be noted: 24 h treatment. Type of series: cell-based, human. From the text:
GFP-SMARCA4 (Addgene, 65391) was used for the SMARCA4 mutation clone. The pLVX-TetOne-Puro-hAXL (Addgene, 124797) backbone was used as a starting point prior to undergoing a series of modifications. The endogenous target gene was removed, and a multiple cloning site (MCS) was inserted downstream of the endogenous promoter. Custom gblocks containing Flag-tagged WT SMARCA4 were synthesized (Integrated DNA Technologies, IDT) and inserted into the MCS. Subsequently, custom gblocks containing SMARCA4-N1540S, SMARCA4-I1551del, or SMARCA4-F1485S were inserted to replace the respective portion of WT SMARCA4. Finally, the TRE3G promoter was replaced with hPGK.
HEK293 cells were seeded overnight and transfected with Lipofectamine 3,000 (Thermo Fisher) according to the manufacturer’s protocol. Media were changed 8 h post transfection and incubated for 48 h prior to conducting further analyses.

Series [6] has as its system 22Rv1-wild type (WT) cells. The series can be described thus: CellTiter-Glo cell viability assay in 22Rv1 wild type cells. The format is cell-based, human. To be noted: Homo sapiens, 22Rv1, Fig. S5F; 22Rv1 WT. The procedure:
as §1

The mark [7] stands for this setting: after 5 d of treatment, 15 mg/kg.

On to `Nc1nnc(-c2ccccc2O)cc1-c1ccc(N2CCC(N3CCC(c4ccc(OC5CCC(=O)NC5=O)cc4)CC3)CC2)cc1` (centres unmarked) [AU-24118], for which the “degradation of target proteins in tumors, immunoblot” value in series [1] was “mild degradation of its target proteins”. In addition, the “degradation of SMARCA4 and PBRM1, immunoblot” value in series [2] is “comparable degradation efficacy of SMARCA4 and PBRM1 to AU-15330”. Besides, in the series with 22Rv1 AUR-3 cells (22Rv1 AUR-3 cells (Fig. S5 E and F)), the “sensitivity of AUR-3 cells versus WT” value is “dramatically less sensitive”. The molecule further showed a pIC50 with 22Rv1 AUR-3 cells (Homo sapiens, 22Rv1, Fig. S5F, 22Rv1 AUR-3) of 6.34. For the same molecule, the body weight changes entry in series [3] (CRPC VCaP xenograft mice, throughout the treatments) is on record as “no significant body weight changes”. For the same molecule, in series [3] (setting [7]), the “apoptosis in tumors (cleaved PARP, TUNEL)” value was “induced apoptosis”; the “downregulation of direct targets (SMARCA2, SMARCA4, PBRM1) and lineage proteins (AR, ERG, C-Myc, PSA) in tumors, Western blot” value was “robust downregulation”. In series [3] (castrated CB17 SCID mice, enzalutamide 10 mg/kg oral gavage five times weekly, AU-24118 15 mg/kg oral gavage three times weekly), the tumor response entry was “regression in every tumor; also recorded: regressed every tumor in the cohort”. For the same molecule, in series [4], the “cell viability preference across diverse cell lines” value is reported as “notable preference for inhibiting transcription factor–addicted cancer cells”. The “degradation of overexpressed mutant SMARCA4, immunoblot” value in series [5] was “resistant to degradation”. The pIC50 in series [6] was 8.03.
